From patent publication US7432276B2, “ABCA1 elevating compounds” (CV Therapeutics, Inc., priority 2005, dated 2008)

Test system: ABCA1 mRNA
Assay: ABCA1 mRNA induction in THP-1 cells, QuantiGene branched DNA assay
Assay type: cell-based
Conditions: 10 μM test compound, 18-20 hours
Method: Modulation of expression of ABCA1 mRNA levels by the compounds of the invention was determined in the following assays.
Induction of ABC1 in THP-1 cells, was measured using QuantiGene® branched DNA assay as per manufacturer's instructions. Cultures of THP-1 were grown to subconfluence in DMEM/10% FBS before replacement with DMEM/BSA and 10 and 3 μM concentrations of the test compounds in DMSO for 18-20 hours. After treatment of cells with compounds, the cells were lysed with lysis buffer at 37° C. for 20 minutes. The cell lysate and ABCA1 specific probe (Genospectra, Inc., Fremont, Calif.) mix were added to the 96 well capture plate and hybridized at 53° C. for 16-18 hours. The signal was amplified using the amplifier and label probes provided with the QuantiGene® assay followed by addition of a luminescent alkaline phosphatase substrate, dioxitane. Luminescence was quantified in Victor V plate reader.
Step 1 • Cells are lysed to release mRNA in the presence of target probes. Target mRNA from lysed cells was then captured by hybridization and transferred to the Capture Plate.
Step 2 • Signal amplification was performed by hybridization of the bDNA Amplifier and Label Probe.
Step 3 • Addition of chemiluminescence substrate yielded a QuantiGene® signal proportional to the amount of mRNA present in the sample.
Table 1 presents the relative fold increase in ABCA1 expression over DMSO for various compounds of the invention when tested at a concentration of […].

SMILES | ABCA1 Induction Fold Increase over DMSO Vehicle
COc1ccc(Br)c2c1OCC1C2Nc2ccc(C(N)=S)cc2C1(C)C (stereo not drawn) [Number 82, amino(1-bromo-4-methoxy-7,7-dimethyl(7,12,12a,6a-tetrahydrochromano[4,3-b]quinolin-9-yl))methane-1-thione] | 2.0 FOLD INCREASE
COc1cccc2c1C1Nc3ccc(C(C)(C)C)cc3C(C)(C)C1CO2 (stereo not drawn) [Number 88, 9-(tert-butyl)-1-methoxy-7,7-dimethyl-7,12,12a,6a-tetrahydrochromano[4,3-b]quinoline] | 6.8 FOLD INCREASE
CC1(C)c2cc(C(O)(C(F)(F)F)C(F)(F)F)ccc2N[C@H]2c3cc(Br)ccc3OC[C@H]21 [Number 2, 2-((6aS,12aR)-2-bromo-7,7-dimethyl(7,12,12a,6a-tetrahydrochromano[4,3-b]quinolin-9-yl))-1,1,1,3,3,3-hexafluoropropan-2-ol] | 5.1 FOLD INCREASE
COC(=O)c1cc2c(cc1OC)NC1c3cc(Br)ccc3OCC1C2(C)C (stereo not drawn) [Number 6, methyl 2-bromo-10-methoxy-7,7-dimethyl-7,12,12a,6a-tetrahydrochromano[4,3-b]quinoline-9-carboxylate] | 1.6 FOLD INCREASE
COc1cccc2c1[C@H]1Nc3ccc(-c4ccc(S(N)(=O)=O)cc4)cc3C(C)(C)[C@@H]1CO2 [Number 97, 4-((12aS,6aS)-1-methoxy-7,7-dimethyl-7,12,12a,6a-tetrahydrochromano[4,3-b]quinolin-9-yl)benzenesulfonamide] | 5.7 FOLD INCREASE
CNS(=O)(=O)Cc1ccc2c(c1)C(C)(C)C1COc3cccc(OC)c3C1N2 (stereo not drawn) [Number 89, {[(1-methoxy-7,7-dimethyl(7,12,12a,6a-tetrahydrochromano[4,3-b]quinolin-9-yl))methyl]sulfonyl}methylamine] | 6.4 FOLD INCREASE
COc1cccc2c1[C@H]1Nc3ccc(-c4ccccc4)cc3C(C)(C)[C@@H]1CO2 [Number 94, (12aS,6aS)-1-methoxy-7,7-dimethyl-9-phenyl-7,12,12a,6a-tetrahydrochromano[4,3-b]quinoline] | 5.8 FOLD INCREASE
CC1(C)c2cc(C(O)(C(F)(F)F)C(F)(F)F)ccc2N[C@@H]2c3cc(OC(F)(F)F)ccc3OC[C@H]21 [Number 9, 2-[(12aS,6aS)-7,7-dimethyl-2-(trifluoromethoxy)(7,12,12a,6a-tetrahydrochromano[4,3-b]quinolin-9-yl)]-1,1,1,3,3,3-hexafluoropropan-2-ol] | 2.4 FOLD INCREASE
Cc1c(C(=O)N2CCS(=O)(=O)CC2)cnn1-c1ccc2c(c1)C(C)(C)[C@H]1COc3cccc(F)c3[C@H]1N2 [Number 145, 1-((6aR,12aS)-6a,7,12,12a-tetrahydro-1-fluoro-7,7-dimethyl-6H-chromeno[4,3-b]quinolin-9-yl)1-5-methyl-1H-pyrazole-4-((1,1-dione-1,4-thiazaperhydroin-yl)methanone)] | 4.5 FOLD INCREASE
CC1(C)c2cc(C(O)(C(F)(F)F)C(F)(F)F)ccc2NC2c3cccc(F)c3OCC21 (stereo not drawn) [Number 51, 1,1,1,3,3,3-hexafluoro-2-(4-fluoro-7,7-dimethyl(7,12,12a,6a-tetrahydrochromano[4,3-b]quinolin-9-yl))propan-2-ol] | 7.8 FOLD INCREASE
CCOP(=O)(Cc1ccc2c(c1)C(C)(C)C1COc3cccc(OC)c3C1N2)OCC (stereo not drawn) [Number 90, diethoxy[(1-methoxy-7,7-dimethyl(7,12,12a,6a-tetrahydrochromano[4,3-b]quinolin-9-yl))methyl]phosphino-1-one] | 7.6 FOLD INCREASE
COc1cccc2c1[C@H]1Nc3ccc(Br)cc3C(C)(C)[C@H]1CO2 [Number 85, (12aS,6aR)-9-bromo-1-methoxy-7,7-dimethyl-7,12,12a,6a-tetrahydrochromano[4,3-b]quinoline] | 8.0 FOLD INCREASE
COc1ccc(Br)c2c1OCC1C2Nc2ccc(C(N)=O)cc2C1(C)C (stereo not drawn) [Number 81, 1-bromo-4-methoxy-7,7-dimethyl-7,12,12a,6a-tetrahydrochromano[4,3-b]quinoline-9-carboxamide] | 1.9 FOLD INCREASE
COc1cccc2c1[C@H]1Nc3ccc(N4CCS(=O)(=O)CC4)cc3C(C)(C)[C@H]1CO2 [Number 72, 4-((12aS,6aR)-1-methoxy-7,7-dimethyl-7,12,12a,6a-tetrahydrochromano[4,3-b]quinolin-9-yl)-1,4-thiazaperhydroine-1,1-dione] | 8.4 FOLD INCREASE
CC1(C)c2cc(CC(=O)O)ccc2NC2c3cc(Br)ccc3OCC21 (stereo not drawn) [Number 4, 2-(2-bromo-7,7-dimethyl-7,12,12a,6a-tetrahydrochromano[4,3-b]quinolin-9-yl)acetic acid] | 2.1 FOLD INCREASE
COc1cccc2c1[C@H]1Nc3ccc(C(C)C)cc3C(C)(C)[C@H]1CO2 [Number 54, (12aS,6aR)-1-methoxy-7,7-dimethyl-9-(methylethyl)-7,12,12a,6a-tetrahydrochromano[4,3-b]quinoline] | 4.3 FOLD INCREASE
CC(C)=CCOC(=O)c1ccc2c(c1)OCC1C2Nc2ccc(C(O)(C(F)(F)F)C(F)(F)F)cc2C1(C)C (stereo not drawn) [Number 12, 3-methylbut-2-enyl 7,7-dimethyl-9-[2,2,2-trifluoro-1-hydroxy-1-(trifluoromethyl)ethyl]-7,12,12a,6a-tetrahydrochromano[4,3-b]quinoline-3-carboxylate] | 4.6 FOLD INCREASE
COc1cccc2c1OC[C@H]1[C@@H]2Nc2ccc(C(=O)N3CCS(=O)(=O)CC3)cc2C1(C)C [Number 129, ((6aR,12aS)-6a,7,12,12a-tetrahydro-4-methoxy-7,7-dimethyl-6H-chromeno[4,3-b]quinolin-9-yl)(1,1-dione-1,4-thiazaperhydroin-yl)methanone] | 4.3 FOLD INCREASE
COc1cccc2c1[C@H]1Nc3ccc(-c4ccc(/C=C/C(=O)O)cc4)cc3C(C)(C)[C@H]1CO2 [Number 115, (2E)-3-[4-((12aS,6aR)-1-methoxy-7,7-dimethyl(7,12,12a,6a-tetrahydrochromano[4,3-b]quinolin-9-yl))phenyl]prop-2-enoic acid] | 2.2 FOLD INCREASE
COc1cccc2c1OCC1C2Nc2ccc(-c3cccc(C(=O)OC(C)C)c3)cc2C1(C)C (stereo not drawn) [Number 60, methylethyl 3-(4-methoxy-7,7-dimethyl-7,12,12a,6a-tetrahydrochromano[4,3-b]quinolin-9-yl)benzoate] | 4.4 FOLD INCREASE

Same assay, conditions: Homo sapiens, 10 μM test compound, 18-20 hours, read-out: ABCA1 Induction Fold Increase over DMSO Vehicle

SMILES | fold induction at 10 µM
CN(C)C(=O)CCc1ccc2c(c1)C1Nc3ccc(C(O)(C(F)(F)F)C(F)(F)F)cc3C(C)(C)C1CO2 (stereo not drawn) [Number 39, 3-{7,7-dimethyl-9-[2,2,2-trifluoro-1-hydroxy-1-(trifluoromethyl)ethyl](7,12,12a,6a-tetrahydrochromano[4,3-b]quinolin-2-yl)}-N,N-dimethylpropanamide] | 3.4
COc1cc(Br)cc2c1OC[C@H]1[C@@H]2Nc2ccc(-c3nnn[nH]3)cc2C1(C)C [Number 164, (6aR,12aS)-2-bromo-6a,7,12,12a-tetrahydro-4-methoxy-7,7-dimethyl-9-(1H-tetrazol-5-yl)-6H-chromeno[4,3-b]quinoline] | 5.6
CCS(=O)(=O)N1CCN(C(=O)c2ccc3c(c2)C(C)(C)[C@H]2COc4cccc(OC)c4[C@H]2N3)CC1 [Number 132, ((6aR,12aS)-1-methoxy-6a,7,12,12a-tetrahydro-7,7-dimethyl-6H-chromeno[4,3-b]quinolin-9-yl)(4-ethanesulfonylpiperazin-1-yl)methanone] | 4.3
CCOP(=O)(Cc1ccc2c(c1)C(C)(C)[C@@H]1COc3c(OC)cc(Br)cc3[C@H]1N2)OCC [Number 179, diethyl((6aS,12aS)-2-bromo-6a,7,12,12a-tetrahydro-4-methoxy-7,7-dimethyl-6H-chromeno[4,3-b]quinolin-9-yl)methylphosphonate] | 5.2
COc1cccc2c1[C@H]1Nc3ccc(S(C)(=O)=O)cc3C(C)(C)[C@H]1CO2 [Number 122, (6aR,12aS)-6a,7,12,12a-tetrahydro-1-methoxy-7,7-dimethyl-9-(methylsulfonyl)-6H-chromeno[4,3-b]quinoline] | 2.4
COC(=O)c1ccc2c(c1)C(C)(C)[C@@H]1COc3c(OC)cc(Br)cc3[C@H]1N2 [Number 152, (6aS,12aS)-methyl 2-bromo-6a,7,12,12a-tetrahydro-4-methoxy-7,7-dimethyl-6H-chromeno[4,3-b]quinoline-9-carboxylate] | 6.1
CC1(C)c2cc(-c3nc(C(=O)O)co3)ccc2N[C@@H]2c3c(F)cccc3OC[C@@H]21 [Number 131, 2-((6aR,12aS)-1-fluoro-6a,7,12,12a-tetrahydro-7,7-dimethyl-6H-chromeno[4,3-b]quinolin-9-yl)oxazole-4-carboxylic acid] | 2
